Measurements: patent publication US20050234100A1, “Insulin resistance as new action of loperamide” (Yu Sheng Pharmaceutical Co., Ltd., priority 2004, published 2005)

What was measured:
[1] = system: C2C12 myoblasts; assay: 2-DG glucose uptake in C2C12 myoblasts; type: cell-based, mouse
Procedure: (§1) The C2C12 cells, obtained from Culture Collection and Research Center (CCRC 60083) of the Food Industry Institute (Hsin-Chiu City, Taiwan) were plated at 5×10^4 cells/dish in 35-mm diameter culture dishes in Dulbecco's modified Eagle's medium (DMEM) (GIBCO BRL, Gaithersburg, Md.) supplemented with 10% fetal bovine serum (FBS) (GIBCO BRL) and 1% antibiotic solution (penicillin 10,000 U/ml, streptomycin 10 mg/ml, amphotericin B 25 μg/ml) and were grown to 80% confluence at 37° C. in humidified atmosphere containing 5% CO2. Myoblast differentiation was induced with DMEM supplemented with 5% horse serum, L-glutamine, and penicillin/streptomycin for 72 h. Differentiated myotubes were starved for 5 h in serum-free DMEM before treatment as described previously (Sheriff et al., 1992).
Glucose uptake was determined using 2-[^14C]-deoxy-D-glucose (2-DG) (New England Nuclear, Boston, Mass.). After 5 h of serum starvation, cells were incubated with or without pharmacological inhibitors at indicated concentrations for 30 min at 37° C. Then, the cells were incubated with loperamide at indicated concentrations at 37° C. for another 30 min under continuous shaking at 40 cycles/min. The cells were further incubated with 2-DG (1 μCi/ml) for 5 min at 37° C. Uptake was terminated by aspiration of the solution. Cells were then washed three times, and radioactivity associated with the cells was determined by cell lysis in 1 M NaOH, and the aliquots were neutralized to be estimated in scintillation counter. 2-DG uptake was expressed as the percentage of the basal 2-DG uptake that was taken as 100% from samples incubated with DMEM only. Nonspecific uptake was obtained by parallel determinations in the presence of 20 μmol/l cytochalasin B (Sigma, St. Louis, Mo., USA).

[2] = system: fructose-rich chow-fed Wistar rats (insulin resistance); assay: intraperitoneal glucose tolerance test (IGTT) in fructose-induced insulin resistant rats; type: in vivo
Procedure: (§2) Animals were food-restricted and given only water to drink for overnight before the experiment. On the morning of examination, the basal blood sample (0.1 ml) drawn from the tail veins of these rats were regarded as 0 min samples. Then, each animal was immediately received an intraperitoneal injection of glucose at 1 g/kg body wt to induce the glucose tolerance test (IGTT). Blood samples from the tail vein were drawn at 5, 10, 20, 30, 60, 90, 120 min after the glucose feeding for measurement of plasma levels of glucose and insulin. Immediately after the completion of the IGTT, all animals received 2 ml of sterile saline subcutaneously to compensate for plasma loss. The obtained whole blood was thoroughly mixed with 10 IU heparin and centrifuged at 13,000×g to separate the plasma. Concentration of plasma glucose was measured by the glucose oxidase method via an analyzer (Quik-Lab, Ames, Miles Inc., Elkhart, Ind., USA) with samples run in duplicate. Enzyme-linked immunosorbent assay was carried out to measure plasma insulin using the commercial kit (Penisula Lab. Inc., Belmont, Calif., USA). Glucose-insulin index was calculated as the product of the glucose and insulin areas under the curve (AUC) as described previously (Kara et al., 2000). In order to evaluate whether loperamide could improve insulin resistance, four different doses of loperamide (2 ? 6 ? 12 ? 18 μg/kg) were injected into abdomen of each animal 30 minutes before the injection of glucose.
After 2 weeks on standard chow (Purina Mills, Inc.), half of the Wistar rats were randomly assigned to receive the fructose-rich chow (Teklad, Madison, Wis.) containing 60% fructose for 4 additional weeks to induce insulin resistance that was confirmed by the loss of tolbutamide action. The other rats still received standard chow during the 4-week period.
(§3) The blood sample was centrifuged to obtain plasma. Then, 10 μl of plasma was mixed with 1.0 ml of Glucose Kit Reagent (Biosystems S.A., Barcelona, Spain) at 37° C. for 10 minutes. The glucose concentration was measured in duplicate using Quik-lab analyzer (Ames, Miles Inc., Elkhart, Ind., USA) and expressed to the value of mg/dl. Results of plasma glucose lowering activity were calculated as percentage decrease of the initial value according to the formula: (Gi−Gt)/Gi×100% where Gi was the initial glucose concentration and Gt was the plasma glucose concentration after treatment of loperamide or same volume of vehicle.
(§4) Enzyme-linked immunosorbent assay (ELISA) was carried out to measure plasma insulin using the commercial kit (Penisula Lab. Inc., Belmont, Calif., USA). The measurement principle utilized the polyclonal antibodies in rabbit to directly identify the carboxyl-terminal of human insulin. Biotinylated peptide would compete with test subject the integration position with antibodies. After washing away the biotinylated peptides that was not integrated with antibodies, streptavidin-conjugated Horseradish Peroxidase (SA-HRP) was used to react with immobilized primary antibody/biotinylated peptide complex. Then, TMB (3,3′,5,5′-Tetramethyl Benzidine Dihydrochloride) is added to react with HRP and then yellow color was shown. The lightness or darkness of color was determined by the amount of biotinylated peptide integrated with antibodies. […] The standard curve was ploted according to the amounts of light absorption of standard subjects at 450 nm. Then through log/logit, the insulin concentration was calculated using MicroReader™ 4 Plus.
Using glucose-insulin index (Kara et al., 2000) as indicator, effect of loperamide on insulin resistance was investigated in fructose-fed rats. The control group was treated with the same volume of saline, while test groups were injected loperamide at four doses (2 ? 6 ? 12 ? 18 μg/kg) into abdomens. […]

[3] = system: TNF-α induced insulin resistant C2C12 myoblasts; assay: insulin-stimulated glucose uptake in TNF-α induced insulin resistant C2C12 myoblasts; type: cell-based, mouse; details: for glucose uptake stimulated by insulin in TNF-α treated C2C12 myoblasts, antagonist alone: without loperamide
Procedure: as §1
Cultured C2C12 myoblasts (5×10^6) were incubated with loperamide at desired concentration or the same volume of vehicle in a cultivation condition oxygenated with a mixture of 95% O2 and 5% CO2 at 37° C. temperature for 3 days. Then, tumor necrosis factor-α (TNF-α) at concentration of 10 ng/ml was added. One hour later, cells were flushed down with 0.05% trypsin and put under centrifugal force at 13,000 rpm for 5 minutes, and clear liquid on top was then thrown away. Insulin ([…]) was used to simulate glucose uptake into cells using 2-[1-^14C]-Deoxy-D-Glucose (2-DG) (the final concentration of isotope was 0.25 μCi/ml) as indicator for 5-min incubation. The reaction was terminated in ice-bath. Then, C2C12 myoblasts were washed with buffer liquid three times. Finally, cells were lysed with 1 M NaOH and put into scintillation vial. The 2-DG specific uptake of cells was measured as indicated above.
The effect of loeramide on insulin resistance was further investigated in C2C12 myoblasts using TNF-α induced insulin resistance as described previously (Ruan et al., 2002; Mikael et al., 2002). Incubation with loperamide for 3 days at desired concentration, C2C12 myoblasts were treated with TNF-α (10 ng/ml) for one hour. Then, insulin was used to stimulate glucose uptake using 2-DG as indicator following the above method.

[4] = system: STZ-induced type-I diabetic rats; details: intravenous injection; cited from earlier work
[5] = system: Zucker-diabetic fatty rats; assay: glucose challenge test in Zucker-diabetic fatty rats; type: in vivo; details: loperamide 2, 6, 18 μg/kg
Procedure: as §2, §3, §4
In order to know similar action of loperamide is also effective in genetic animal, the present study employed the Zucker-diabetic fatty rats to investigate IGTT in addition. Also, control group was treated with the same volume of vehicle (saline). The only difference is that glucose (0.5 g/kg) was given by intravenous injection at 30 minutes later of treatment.

[6] = TNF-α treated C2C12 myoblasts, antagonist dose dependence

In the case of C=CCN1CC[C@]23c4c5ccc(O)c4O[C@H]2C(=O)CC[C@@]3(O)[C@H]1C5 [naloxone], the “loperamide (10 μM)-induced 2-DG uptake in the presence of antagonist” value ([1]; naloxone 0.1 μM, 8 experiments) is reported as 183.2±4.1 pmol/mg protein/5 min, the “loperamide (10 μM)-induced 2-DG uptake in the presence of antagonist” value ([1]; naloxone 1 μM, 8 experiments) is reported as 169.9±5.0 pmol/mg protein/5 min and the “action of loperamide to lower glucose-insulin index in the presence of naloxone” value ([2]; naloxone 1 mg/kg 1 hour before loperamide 18 μg/kg, fructose-rich chow-fed rats) is reported as “reversed to that near to the value in fructose-rich chow-fed rats received vehicle treatment”. For the same compound, the “glucose-insulin index, naloxone alone” value ([2]; naloxone 1 mg/kg, fructose-rich chow-fed rats) was “did not modify the value of glucose-insulin index directly”, the “effect of antagonist on action of loperamide (10 μM)” value (“effect of antagonist” below) [3, 6] was “inhibited the effect of loperamide in a dose-dependent manner” and the “effect of antagonist” value ([3]; antagonist at 1 μM) was “eliminated the action of loperamide”. For the same compound, the “glucose uptake stimulated by insulin in TNF-α treated C2C12 myoblasts, antagonist alone” value ([3]; antagonist at 1 μM) was “did not modify the glucose uptake”.
With C=CCN1CC[C@]23c4c5ccc(O)c4O[C@H]2/C(=N/N=C2\CC[C@@]4(O)[C@H]6Cc7ccc(O)c8c7[C@@]4(CCN6CC=C)[C@H]2O8)CC[C@@]3(O)[C@H]1C5 [naloxonazine] the “effect of antagonist” value [3, 6] was “inhibited the effect of loperamide in a dose-dependent manner”, the “effect of antagonist” value ([3]; antagonist at 1 μM) was “eliminated the action of loperamide” and the “glucose uptake stimulated by insulin in TNF-α treated C2C12 myoblasts, antagonist alone” value ([3]; antagonist at 1 μM) was “did not modify the glucose uptake”.
With CN(C)C(=O)C(CCN1CCC(O)(c2ccc(Cl)cc2)CC1)(c1ccccc1)c1ccccc1 [loperamide] the “incubation time to maximal plateau of 2-DG uptake” value ([1]; C2C12 myoblasts about 10^6 cells, 37° C.) was “about 25 min”, the “2-DG uptake, concentration dependence” value ([1]; loperamide 10 nM to 10 μM, 30 min incubation) was “increase of 2-DG uptake in a concentration-dependent manner” and the “glucose uptake relative to control” value ([1]; loperamide 10 μM (maximal concentration), N=8) was “about 1.3 times of the control”. The 2-DG uptake ([1]; loperamide 10 μM, no antagonist, 8 experiments) was 204.3±4.7 pmol/mg protein/5 min, the plasma glucose [4] was “produced plasma glucose lowering effect” and the “raise of plasma glucose during IGTT” value ([2]; fructose-fed rats, loperamide 2, 6, 12, 18 μg/kg into abdomen, 60 minutes after injection (30 minutes after 1 g/kg glucose i.p.), vs control group) was “reduce the raise of plasma glucose significantly”. For the same compound, the “plasma insulin levels and incremental area under the insulin curve during IGTT” value ([2]; fructose-fed rats, loperamide 2-18 μg/kg into abdomen) was “lowered”, the “total AUC for the glucose response during IGTT” value ([2]; fructose-fed rats, loperamide 2-18 μg/kg into abdomen, vs vehicle-treated control) was “markedly lower than that from vehicle-treated control” and the “glucose-insulin index during IGTT” value ([2]; fructose-rich chow-fed rats, loperamide 2-18 μg/kg into abdomen, index = product of glucose and insulin AUC) was “reduced the value of glucose-insulin index”. The “glucose uptake in TNF-α induced insulin resistant C2C12 myoblasts” value ([3]; loperamide 10 μM (maximal concentration)) was “reversed the glucose uptake in TNF-α induced insulin resistant C2C12 myoblasts to the level near normal control”, the “glucose uptake stimulated by insulin in TNF-α treated C2C12 myoblasts” value ([3]; loperamide incubation 3 days, TNF-α 10 ng/ml 1 hour, dose dependence) was “reversed the glucose uptake stimulated by insulin in TNF-α treated C2C12 myoblasts in a dose-dependent manner” and the “AUC of plasma glucose” value [5] was “inhibited by loperamide but at a higher dosing”. For the same compound, the glucose-insulin index [5] was “dose-dependently decreased”, the “total area (AUC) of plasma insulin” value [5] was “reduced by loperamide in a dose-dependent manner” and the “plasma insulin after glucose challenge” value ([5]; 5 min after glucose injection) was “reduction of plasma insulin by loperamide was obtained in a dose-dependent fashion”. For the same compound, the “plasma glucose after glucose challenge” value ([5]; 35 min after treatment (5 min after 0.5 g/kg glucose i.v.)) was “lowering of plasma glucose”.
